From PubChem BioAssay AID248 (DTP/NCI, 2004)
“And” between values parts separate entries of the source, which are not always exact repeats. Identical values can stand only once. Inconclusive results and toxic doses are left out. No stated cut-off is given here; in the data, active means T/C of 150% or more; inactive means T/C below 125%.

System: L1210 leukemia ip in BDF1 mice, survival T/C
Assay: NCI In Vivo Anticancer Drug Screen. Data for tumor model L1210 Leukemia (intraperitoneal) in B6D2F1 (BDF1) mice
Settings: endpoint: mean survival time, higher = longer survival
Procedure, shortened: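 Value reflects the ratio of survival in compound-treated mice to survival in vehicle-treated controls, with both groups carrying the same transplanted tumor.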

[1] = dose: 100.0 mg/kg/injection, schedule: Q01DX001 (ip), vehicle: saline
[2] = dose: 200.0 mg/kg/injection, schedule: Q01DX001 (ip), vehicle: saline
[3] = dose: 400.0 mg/kg/injection, schedule: Q01DX001 (ip), vehicle: saline
[4] = dose: 100.0 mg/kg/injection, schedule: Q04DX003 (ip), vehicle: saline with Tween-80
[5] = dose: 200.0 mg/kg/injection, schedule: Q04DX003 (ip), vehicle: saline with Tween-80
[6] = dose: 100.0 mg/kg/injection, schedule: Q04DX002 (ip), vehicle: saline with Tween-80
[7] = dose: 200.0 mg/kg/injection, schedule: Q04DX002 (ip), vehicle: saline with Tween-80
[8] = dose: 400.0 mg/kg/injection, schedule: Q04DX002 (ip), vehicle: saline with Tween-80
[9] = dose: 100.0 mg/kg/injection, schedule: Q04DX003 (ip), vehicle: Klucel (hydroxypropylcellulose) (HPC)
[10] = dose: 200.0 mg/kg/injection, schedule: Q04DX003 (ip), vehicle: Klucel (hydroxypropylcellulose) (HPC)
[11] = dose: 400.0 mg/kg/injection, schedule: Q04DX003 (ip), vehicle: Klucel (hydroxypropylcellulose) (HPC)

Measured: T/C

O/N=C1\CN2CCC1CC2
inactive: dose: 18.75 mg/kg/injection, schedule: Q04DX003 (ip), vehicle: saline 104 % of control | dose: 25.0 mg/kg/injection, schedule: Q01DX001 (ip), vehicle: saline with Tween-80 97 % of control | dose: 37.5 mg/kg/injection, schedule: Q04DX003 (ip), vehicle: saline 98 % of control | dose: 50.0 mg/kg/injection, schedule: Q01DX001 (ip), vehicle: saline with Tween-80 97 % of control | dose: 75.0 mg/kg/injection, schedule: Q04DX003 (ip), vehicle: saline 102 % of control | dose: 100.0 mg/kg/injection, schedule: Q01DX001 (ip), vehicle: saline with Tween-80 102 % of control

O=[N+]([O-])c1ccc(NC(c2ccccc2)c2ccc3cccnc3c2O)cc1 (centres undefined)
inactive: [1] 89 % of control | [2] 95 % of control | [3] 91 % of control

O=S1(=O)CCC(NCCSS(=O)(=O)O)CC1
inactive: [4] 96 % of control | [5] 96 % of control | dose: 400.0 mg/kg/injection, schedule: Q04DX003 (ip), vehicle: saline with Tween-80 104 % of control

CC(C)C1SC(=S)NC1=O (centres undefined)
inactive: [1] 88 % of control | [2] 95 % of control

COc1ccc(C)cc1NC(=S)NC(=O)c1ccc(Cl)cc1Cl
inactive: dose: 25.0 mg/kg/injection, schedule: Q01DX009 (ip), vehicle: saline with Tween-80 93 % of control and 105 % of control | dose: 50.0 mg/kg/injection, schedule: Q01DX009 (ip), vehicle: saline with Tween-80 93 % of control and 94 % of control | [6] 96 % of control | [4] 98 % of control | [7] 93 % of control and 107 % of control | [5] 95 % of control | dose: 400.0 mg/kg/injection, schedule: Q01DX009 (ip), vehicle: saline with Tween-80 96 % of control | [8] 93 % of control and 98 % of control

CC(=O)C1=C(O)C(c2ccccc2)c2ccccc21 (centres undefined)
inactive: dose: 100.0 mg/kg/injection, schedule: Q01DX001 (ip), vehicle: Klucel (hydroxypropylcellulose) (HPC) 108 % of control | [9] 100 % of control | dose: 200.0 mg/kg/injection, schedule: Q01DX001 (ip), vehicle: Klucel (hydroxypropylcellulose) (HPC) 103 % of control | [10] 103 % of control | dose: 400.0 mg/kg/injection, schedule: Q01DX001 (ip), vehicle: Klucel (hydroxypropylcellulose) (HPC) 100 % of control | [11] 95 % of control

CCC(C)(CCC(C)C)c1ccncc1 (centres undefined)
inactive: [1] 106 % of control | [2] 98 % of control

CCC(C)c1c(N)nc(N)[nH]c1=O (centres undefined)
inactive: [9] 94 % of control | [10] 106 % of control | [11] 110 % of control

COc1ncnc2c1ncn2C1OC(CF)C(O)C1O (centres undefined)
inactive: dose: 100.0 mg/kg/injection, schedule: Q01DX005 (ip), vehicle: saline 101 % of control | dose: 200.0 mg/kg/injection, schedule: Q01DX005 (ip), vehicle: saline 103 % of control

COc1cccc(NC(=O)Nc2ccccc2Cl)c1
inactive: dose: 100.0 mg/kg/injection, schedule: Q01DX009 (ip), vehicle: gum acacia 93 % of control | dose: 100.0 mg/kg/injection, schedule: Q04DX003 (ip), vehicle: gum acacia 92 % of control | dose: 200.0 mg/kg/injection, schedule: Q01DX009 (ip), vehicle: gum acacia 98 % of control | dose: 200.0 mg/kg/injection, schedule: Q04DX003 (ip), vehicle: gum acacia 90 % of control | dose: 400.0 mg/kg/injection, schedule: Q01DX009 (ip), vehicle: gum acacia 96 % of control | dose: 400.0 mg/kg/injection, schedule: Q04DX003 (ip), vehicle: gum acacia 94 % of control

Cc1[nH]ccc2cc3nc4ccccc4c3cc12
inactive: dose: 50.0 mg/kg/injection, schedule: Q01DX001 (ip), vehicle: saline 103 % of control | [1] 104 % of control | [2] 102 % of control | [3] 103 % of control

C/C=C(\CC)C(=O)O.[Pb]
inactive: dose: 50.0 mg/kg/injection, schedule: Q04DX002 (ip), vehicle: saline with Tween-80 97 % of control | [6] 96 % of control and 119 % of control | [7] 100 % of control | [8] 92 % of control
